Experimental data published in patent publication US11491162B2, “Combination of quinoline-4-carboxamides and benzonaphthyridine derivatives as antimalarial drug combination” (Merck Patent GmbH, priority 2018, dated 2022).
Where a name gives a salt, the structure may show the parent alone.

Key:
[1] = tested on: P. falciparum Pf3D7^0087/N9; assay: In vivo SCID mouse model, oral therapeutic efficacy; parameters: species or system Plasmodium falciparum; conditions: for % control: day 7; for Activity: day 7 vs untreated control
Protocol: Compound efficacy was assessed against the Plasmodium falciparum strain Pf3D7^0087/N9 in vivo. Mice are infected intravenously with parasitized red blood cells on day 0. Experimental mice are generally treated at day 3, 4, 5, and 6 post-infection with an oral dose of the compound (single or 4-day oral dosing regimen) and are compared to an infected control group for reduction in parasitemia on day 7 (Maria Belen Jimenez-Díaz, Teresa Mulet, Sara Viera, Vanessa Gomez, Helen Garuti, Javier Ibanez, Angela Alvarez-Doval, Leonard D. Shultz, Antonio Martínez, Domingo Gargallo-Viola, and Inigo Angulo-Barturen, Improved Murine Model of Malaria Using Plasmodium falciparum Competent Strains and Non-Myelodepleted NOD-scid IL2Rgammanull Mice Engrafted with Human Erythrocytes, Antimicrob Agents Chemother. 2009, 53:4533).
PYRO and M1 were solubilized in a vehicle consisting of 70% Tween-80 and 30% ethanol, followed by a 10-fold dilution in H2O.

P-gp = target: T1, P-gp (Homo sapiens, UniProt P08183); assay: Inhibition of Pgp-mediated efflux of M1 in Caco-2 monolayer; assay type: cell-based; conditions: M1 as substrate
T1 construct: In Caco-2 monolayer cells, M1 is effluxed by P-gp transporters with a ratio of 18.2; endogenous in cells; host or cells: Caco-2 cells, differentiated monolayers on polycarbonate filter inserts

[2] = PYRO 4 × 1 MG/KG oral, SCID mice, Table 2
[3] = PYRO 4 × 3 MG/KG oral, SCID mice, Table 2
[4] = PYRO 4 × 9 MG/KG oral, SCID mice, Table 2
[5] = Table 4 entry 3: M1 0 mg/kg, PYRO 4 × 3 mg/kg, oral
[6] = Table 4 entry 3: M1 0 mg/kg, PYRO 4 × 3 mg/kg, oral, LLQ = <0.01% parasitemia
[7] = Table 4 entry 5: M1 0 mg/kg, PYRO 4 × 9 mg/kg, oral
[8] = Table 4 entry 5: M1 0 mg/kg, PYRO 4 × 9 mg/kg, oral, LLQ = <0.01% parasitemia
[9] = Table 4 entry 7: M1 0 mg/kg, PYRO 4 × 30 mg/kg, oral
[10] = Table 4 entry 7: M1 0 mg/kg, PYRO 4 × 30 mg/kg, oral, LLQ = <0.01% parasitemia

T1 sequence (P08183 whole entry): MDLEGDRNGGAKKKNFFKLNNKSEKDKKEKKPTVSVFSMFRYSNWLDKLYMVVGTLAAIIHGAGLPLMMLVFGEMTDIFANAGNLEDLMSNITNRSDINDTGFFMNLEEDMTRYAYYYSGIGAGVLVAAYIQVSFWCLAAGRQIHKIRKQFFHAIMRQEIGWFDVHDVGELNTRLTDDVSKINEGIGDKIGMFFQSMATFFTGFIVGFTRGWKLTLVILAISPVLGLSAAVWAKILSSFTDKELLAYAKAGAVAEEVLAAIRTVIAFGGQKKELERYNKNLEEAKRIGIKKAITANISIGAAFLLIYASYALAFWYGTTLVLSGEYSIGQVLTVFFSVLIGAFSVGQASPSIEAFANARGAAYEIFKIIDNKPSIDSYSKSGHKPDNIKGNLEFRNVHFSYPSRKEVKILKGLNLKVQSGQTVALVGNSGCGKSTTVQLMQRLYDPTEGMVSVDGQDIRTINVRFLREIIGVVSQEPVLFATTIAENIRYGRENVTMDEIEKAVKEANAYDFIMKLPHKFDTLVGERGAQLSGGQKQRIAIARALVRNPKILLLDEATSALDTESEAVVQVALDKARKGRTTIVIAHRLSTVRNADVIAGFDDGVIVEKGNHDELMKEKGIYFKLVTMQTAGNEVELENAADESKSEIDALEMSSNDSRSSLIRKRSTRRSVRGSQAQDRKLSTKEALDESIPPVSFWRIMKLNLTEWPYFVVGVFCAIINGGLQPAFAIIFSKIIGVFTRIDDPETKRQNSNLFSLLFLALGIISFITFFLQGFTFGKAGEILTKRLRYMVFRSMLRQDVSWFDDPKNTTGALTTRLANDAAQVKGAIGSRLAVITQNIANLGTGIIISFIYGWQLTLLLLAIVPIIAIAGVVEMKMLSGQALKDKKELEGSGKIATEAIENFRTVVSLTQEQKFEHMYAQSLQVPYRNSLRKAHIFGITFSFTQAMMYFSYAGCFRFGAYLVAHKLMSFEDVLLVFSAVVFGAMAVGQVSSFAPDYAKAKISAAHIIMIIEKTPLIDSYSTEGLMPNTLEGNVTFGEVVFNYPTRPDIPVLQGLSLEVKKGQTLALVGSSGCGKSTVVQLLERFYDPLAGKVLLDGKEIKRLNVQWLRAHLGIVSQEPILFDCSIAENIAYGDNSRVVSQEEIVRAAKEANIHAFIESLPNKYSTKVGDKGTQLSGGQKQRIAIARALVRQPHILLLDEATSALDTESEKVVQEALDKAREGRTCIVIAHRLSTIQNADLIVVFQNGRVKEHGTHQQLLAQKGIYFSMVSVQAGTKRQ

SMILES: COc1ccc2nc3cc(Cl)ccc3c(Nc3cc(CN4CCCC4)c(O)c(CN4CCCC4)c3)c2n1 [PYRO, pyronaridine tetraphosphate salt]
- % PARASITEMIA day 3 post infection [1, 2]: 0.63%
- % PARASITEMIA day 4 post infection [1, 2]: 1.21%
- % PARASITEMIA day 5 post infection [1, 2]: 3.14%
- % PARASITEMIA day 6 post infection [1, 2]: 4.53%
- % PARASITEMIA day 7 post infection [1, 2]: 7.55%
- % control ([1]; PYRO 4 × 1 MG/KG oral, SCID mice): 82.6%
- Activity ([1]; PYRO 4 × 1 MG/KG oral, SCID mice, 1 mg/kg): 17.4%
- Activity ([1]; PYRO 4 × 1 MG/KG oral, SCID mice, listed as pyronaridine, 1 mg/kg): 17%
- % PARASITEMIA day 3 post infection [1, 3]: 0.71%
- % PARASITEMIA day 4 post infection [1, 3]: 1%
- % PARASITEMIA day 5 post infection [1, 3]: 0.44%
- % PARASITEMIA day 6 post infection [1, 3]: 0.25%
- % PARASITEMIA day 7 post infection [1, 3]: 0.04%
- % control ([1]; PYRO 4 × 3 MG/KG oral, SCID mice): 0.4%
- Activity ([1]; PYRO 4 × 3 MG/KG oral, SCID mice, 3 mg/kg): 99.6%
- Activity ([1]; PYRO 4 × 3 MG/KG oral, SCID mice, listed as pyronaridine, 3 mg/kg): 99.6%
- % PARASITEMIA day 3 post infection [1, 4]: 0.7%
- % PARASITEMIA day 4 post infection [1, 4]: 0.28%
- % PARASITEMIA day 5 post infection [1, 4]: 0.15%
- % PARASITEMIA day 6 post infection [1, 4]: 0.063%
- % PARASITEMIA day 7 post infection ([1]; PYRO 4 × 9 MG/KG oral, SCID mice, Table 2, LLQ = <0.01% parasitemia, 9 mg/kg): <LLQ
- % PARASITEMIA day 7 post infection ([1]; PYRO 4 × 9 MG/KG oral, SCID mice, Table 2, LLQ = <0.01% parasitemia, listed as pyronaridine, 9 mg/kg): parasite-free
- % control ([1]; PYRO 4 × 9 MG/KG oral, SCID mice, LLQ = <0.01% parasitemia): <LLQ
- Activity ([1]; PYRO 4 × 9 MG/KG oral, SCID mice, 9 mg/kg): 100%
- Activity ([1]; PYRO 4 × 9 MG/KG oral, SCID mice, listed as pyronaridine, 9 mg/kg): > 99.9%
- % PARASITEMIA day 3 post infection [1, 5]: 1.16%
- % PARASITEMIA day 4 post infection [1, 5]: 0.67%
- % PARASITEMIA day 5 post infection [1, 5]: 0.08%
- % PARASITEMIA day 6 post infection [1, 5]: 0.01%
- % PARASITEMIA day 7 post infection [1, 6]: <LLQ
- % PARASITEMIA day 10 post infection [1, 6]: <LLQ
- % PARASITEMIA day 3 post infection [1, 7]: 1.09%
- % PARASITEMIA day 4 post infection [1, 7]: 0.34%
- % PARASITEMIA day 5 post infection [1, 7]: 0.05%
- % PARASITEMIA day 6 post infection [1, 8]: <LLQ
- % PARASITEMIA day 7 post infection [1, 8]: <LLQ
- % PARASITEMIA day 10 post infection [1, 8]: <LLQ
- % PARASITEMIA day 3 post infection [1, 9]: 1.13%
- % PARASITEMIA day 4 post infection [1, 9]: 0.14%
- % PARASITEMIA day 5 post infection [1, 9]: 0.02%
- % PARASITEMIA day 6 post infection [1, 9]: 0.01%
- % PARASITEMIA day 7 post infection [1, 10]: <LLQ
- % PARASITEMIA day 10 post infection [1, 10]: <LLQ
- concentrations at which PYRO inhibited Pgp-mediated efflux of M1 (P-gp): greater than 10 μM
